Data taken from US10377770B2 (Novartis AG, priority 2015, dated 2019).

target: C-Raf FL (full length CRAF with Y340E and Y341E activating mutations, co-expressed with h14-3-3 zeta) (Homo sapiens (Human), UniProt P04049, Y340E/Y341E); test: In vitro Raf activity determination, AlphaScreen p-MEK readout, c-Raf (C-Raf FL); format: biochemical; settings: c-Raf approximately 4 nM, ATP 1 μM, pre-incubation 60 minutes, reaction 1 hour
Outline: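 Full-length C-Raf (~4 nM) pre-incubated 60 min at room temperature with compound and kinase-dead biotinylated MEK1 (~10 nM) in Tris pH 7.5, 15 mM MgCl2, BSA, DTT. Reaction started with 1 μM ATP and run 1 h at room temperature. Phospho-MEK detected by AlphaScreen with anti-p-MEK antibody.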

Chain of C-Raf FL (full length CRAF with Y340E and Y341E activating mutations, co-expressed with h14-3-3 zeta) (P04049 whole entry Y340E/Y341E): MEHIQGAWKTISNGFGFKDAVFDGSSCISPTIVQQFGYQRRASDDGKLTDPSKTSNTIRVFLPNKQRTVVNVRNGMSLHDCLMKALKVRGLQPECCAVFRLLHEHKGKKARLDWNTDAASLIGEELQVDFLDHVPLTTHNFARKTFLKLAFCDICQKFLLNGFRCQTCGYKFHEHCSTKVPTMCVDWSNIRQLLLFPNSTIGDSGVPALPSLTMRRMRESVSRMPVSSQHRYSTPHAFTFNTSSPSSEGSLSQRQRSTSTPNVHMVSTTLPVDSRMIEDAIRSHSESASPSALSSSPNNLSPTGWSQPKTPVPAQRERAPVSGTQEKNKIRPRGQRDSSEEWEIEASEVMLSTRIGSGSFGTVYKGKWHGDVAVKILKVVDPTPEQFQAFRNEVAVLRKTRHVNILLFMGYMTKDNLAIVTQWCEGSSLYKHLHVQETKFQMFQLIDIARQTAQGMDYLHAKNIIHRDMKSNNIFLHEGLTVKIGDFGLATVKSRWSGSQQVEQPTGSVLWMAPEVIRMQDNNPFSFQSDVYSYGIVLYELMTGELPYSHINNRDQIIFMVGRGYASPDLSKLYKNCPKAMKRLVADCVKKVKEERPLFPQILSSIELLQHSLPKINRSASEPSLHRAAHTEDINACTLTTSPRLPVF
Chain of C-Raf FL (full length CRAF with Y340E and Y341E activating mutations, co-expressed with h14-3-3 zeta) (P63104 whole entry partner): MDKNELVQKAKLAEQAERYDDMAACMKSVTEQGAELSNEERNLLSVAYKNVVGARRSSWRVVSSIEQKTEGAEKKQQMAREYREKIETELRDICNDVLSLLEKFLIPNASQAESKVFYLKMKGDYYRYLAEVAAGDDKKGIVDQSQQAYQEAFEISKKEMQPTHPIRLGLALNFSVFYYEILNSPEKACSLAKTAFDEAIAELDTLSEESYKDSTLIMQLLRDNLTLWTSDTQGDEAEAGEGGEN

Row | SMILES | IC50 [nM]
1 | Cc1ccc(NC(=O)c2ccnc(C(C)(F)F)c2)cc1-c1cnc2c(c1)N1CCOC[C@@H]1C(F)(F)[C@@H]2O [Example 162, N-(3-((4aR,6R)-5,5-difluoro-6-hydroxy-1,2,4,4a,5,6-hexahydro-[1,4]oxazino[4,3-a][1,5]naphthyridin-9-yl)-4-methylphenyl)-2-(1,1-difluoroethyl)isonicotinamide] | 0.093
2 | Cc1ccc(NC(=O)c2ccnc(C(C)(F)F)c2)cc1-c1cnc2c(c1)N1CCOC[C@H]1C(F)(F)[C@H]2O [Example 164, N-(3-((4aS,6S)-5,5-difluoro-6-hydroxy-1,2,4,4a,5,6-hexahydro-[1,4]oxazino[4,3-a][1,5]naphthyridin-9-yl)-4-methylphenyl)-2-(1,1-difluoroethyl)isonicotinamide] | 0.43
3 | Cc1ccc(NC(=O)c2ccnc(C(C)(F)F)c2)cc1-c1cnc2c(c1)N1CCOC[C@@H]1C(F)(F)[C@@H]2O [Example 165, N-(3-((4aR,6R)-5,5-difluoro-6-hydroxy-1,2,4,4a,5,6-hexahydro-[1,4]oxazino[4,3-a][1,5]naphthyridin-9-yl)-4-methylphenyl)-2-(1,1-difluoroethyl)isonicotinamide] | 0.62
4 | Cc1ccc(NC(=O)c2ccnc(C(F)(F)F)c2)cc1-c1cnc2c(c1)N1CCOC[C@H]1C(F)(F)[C@H]2O [Example 167, N-(3-((4aS,6S)-5,5-difluoro-6-hydroxy-1,2,4,4a,5,6-hexahydro-[1,4]oxazino[4,3-a][1,5]naphthyridin-9-yl)-4-methylphenyl)-2-(trifluoromethyl)isonicotinamide] | 0.077
5 | Cc1ccc(NC(=O)c2ccnc(C(F)(F)F)c2)cc1-c1cnc2c(c1)N1CCOC[C@@H]1C(F)(F)[C@@H]2O [Example 168, N-(3-((4aR,6R)-5,5-difluoro-6-hydroxy-1,2,4,4a,5,6-hexahydro-[1,4]oxazino[4,3-a][1,5]naphthyridin-9-yl)-4-methylphenyl)-2-(trifluoromethyl)isonicotinamide] | 0.77
6 | CCN1C(=O)[C@H]2COCC[C@@H]2c2cc(-c3cc(NC(=O)c4ccnc(C(F)(F)F)c4)ccc3C)cnc21 [Example 236, N-(3-((4aR,10bS)-6-ethyl-5-oxo-1,4,4a,5,6,10b-hexahydro-2H-pyrano[3,4-c][1,8]naphthyridin-9-yl)-4-methylphenyl)-2-(trifluoromethyl)isonicotinamide] | 0.3
7 | CCN1C(=O)Cc2nncn2-c2cc(-c3cc(NC(=O)c4ccnc(C(F)(F)F)c4)ccc3C)cnc21 [Example 237, N-(3-(6-ethyl-5-oxo-5,6-dihydro-4H-pyrido[2,3-b][1,2,4]triazo1o[4,3-d][1,4]diazepin-9-yl)-4-methylphenyl)-2-(trifluoromethyl) isonicotinamide] | 1.3
8 | CCN1C(=O)Cc2nncn2-c2cc(-c3cc(NC(=O)c4cccc(C(F)(F)F)c4)cnc3C)cnc21 [Example 238, N-(5-(6-ethyl-5-oxo-5,6-dihydro-4H-pyrido[2,3-b][1,2,4]triazo1o[4,3-d][1,4]diazepin-9-yl)-6-methylpyridin-3-yl)-3-(trifluoromethyl) benzamide] | 2.7
9 | CCN1C(=O)C(C)(C)c2nncn2-c2cc(-c3cc(NC(=O)c4ccnc(C(F)(F)F)c4)ccc3C)cnc21 [Example 239, N-(3-(6-ethyl-4,4-dimethyl-5-oxo-5,6-dihydro-4H-pyrido[2,3-b][1,2,4]-triazolo[4,3-d][1,4]diazepin-9-yl)-4 methylphenyl)-2-(trifluoromethyl) isonicotinamide] | 4.7
10 | CCN1C(=O)C(C)(C)c2nncn2-c2cc(-c3cc(NC(=O)c4cccc(C(F)(F)F)c4)cnc3C)cnc21 [Example 240, N-(5-(6-ethyl-4,4-dimethyl-5-oxo-5,6-dihydro-4H-pyrido[2,3-b][1,2,4]triazolo[4,3-d][1,4]diazepin-9-yl)-6-methylpyridin-3-yl)-3-(trifluoromethyl) benzamide] | 10.6
11 | CCN1Cc2nncn2-c2cc(-c3cc(NC(=O)c4ccnc(C(F)(F)F)c4)ccc3C)cnc2C1=O [Example 241, N-(3-(5-ethyl-6-oxo-5,6-dihydro-4H-pyrido[2,3-f][1,2,4]-triazolo[4,3-a][1,4]diazepin-9-yl)-4-methylphenyl)-2-(trifluoromethyl) isonicotinamide] | 9.5
12 | CCN1C(=O)N2COCCC2(C)c2cc(-c3cc(NC(=O)c4ccnc(C(F)(F)F)c4)ccc3C)ccc21 (stereo not drawn) [Example 242, N-(3-(7-ethyl-11b-methyl-6-oxo-1,2,4,6,7,11b-hexahydro-[1,3]oxazino[3,4-c]quinazolin-10-yl)-4-methylphenyl)-2-(trifluoromethyl) isonicotinamide] | 0.3
13 | CCN1C(=O)N2COCCC2(C)c2cc(-c3cc(NC(=O)c4cccc(C(F)(F)F)c4)cnc3C)ccc21 (stereo not drawn) [Example 243] | 0.6
14 | CCN1C(=O)N2COCCC2(C)c2cc(-c3cc(NC(=O)c4ccnc(C(F)(F)F)c4)ccc3C)ccc21 (stereo not drawn) [Example 244, N-(3-(7-ethyl-11b-methyl-6-oxo-1,2,4,6,7,11b-hexahydro-[1,3]oxazino[3,4-c]quinazolin-10-yl)-4-methylphenyl)-2-(trifluoromethyl) isonicotinamide] | 0.1
15 | CCN1C(=O)N2COCCC2(C)c2cc(-c3cc(NC(=O)c4cccc(C(F)(F)F)c4)cnc3C)ccc21 (stereo not drawn) [Example 245, N-(5-(7-ethyl-11b-methyl-6-oxo-1,2,4,6,7,11b-hexahydro-[1,3]oxazino[3,4-c]quinazolin-10-yl)-6-methylpyridin-3-yl)-3-(trifluoromethyl) benzamide] | 0.2
16 | CCN1C(=O)C2CCOCCC2c2cc(-c3cc(NC(=O)c4ccnc(C(F)(F)F)c4)ccc3C)cnc21 (stereo not drawn) [Example 246, N-(3-((5a, 11b-cis)-7-ethyl-6-oxo-1,2,4,5,5a,6,7,11b-octahydrooxepino [4,5-c][1,8]naphthyridin-10-yl)-4-methylphenyl)-2-(trifluoromethyl) isonicotinamide] | 0.2
17 | CCN1C(=O)C2CCOCCC2c2cc(-c3cc(NC(=O)c4ccnc(C(F)(F)F)c4)ccc3C)cnc21 (stereo not drawn) [Example 247, N-(3-((5a, 11b-cis)-7-ethyl-6-oxo-1,2,4,5,5a,6,7,11b-octahydrooxepino 4,5-c][1,8]naphthyridin-10-yl)-4-methylphenyl)-2-(trifluoromethyl) isonicotinamide] | 0.3
18 | CCN1C(=O)C2CCOCCC2c2cc(-c3cc(NC(=O)c4ccnc(C(F)(F)F)c4)ccc3C)cnc21 (stereo not drawn) [Example 248] | 0.5
19 | CCN1C(=O)C2CCOCCC2c2cc(-c3cc(NC(=O)c4ccnc(C(F)(F)F)c4)ccc3C)cnc21 (stereo not drawn) [Example 249, N-(3-((5a, 11b- trans)-7-ethyl-6-oxo-1,2,4,5,5a,6,7,11boctahydrooxepino [4,5-c][1,8]naphthyridin-4,5-10-yl)-4-methylphenyl)-2-(trifluoromethyl) isonicotinamide] | 0.1
20 | CCN1C(=O)C2CCOCCC2c2cc(-c3cc(NC(=O)c4cccc(C(F)(F)F)c4)cnc3C)cnc21 (stereo not drawn) [Example 250, N-(5-((5a, 11b- trans)-7-ethyl-6-oxo-1,2,4,5,5a,6,7,11b-octahydrooxepino [4,5-c][1,8]naphthyridin-10-yl)-6-methylpyridin-3-yl)-3-(trifluoromethyl) benzamide] | 0.3
21 | CCN1C(=O)C2CCOCCC2c2cc(-c3cc(NC(=O)c4ccnc(C(C)(C)F)c4)cnc3C)cnc21 (stereo not drawn) [Example 251, N-(5-((5a, 11b- trans)-7-ethyl-6-oxo-1,2,4,5,5a, 6,7,11b-octahydrooxepino [4,5-c[1,8]naphtliyridin-10-yl)-6-methylpyridin-3-yl)-2-(2-fluoropropan-2-yl)isonicotinamide] | 0.2
22 | CCN1C(=O)[C@@H]2COCC[C@H]2c2cc(-c3cc(NC(=O)c4ccnc(C(F)(F)F)c4)cnc3C)cnc21 [Example 252, N-(5-((4aS, 10bR)-6-ethyl-5-oxo-2,4,4a,5,6,10b-hexahydro-1H-pyrano[3,4-c][1,8]naphthyridin-9-yl)-6-methylpyridin-3-yl)-2-(trifluoromethyl) isonicotinamide] | 0.1
23 | CCN1C(=O)[C@@H]2COCC[C@H]2c2cc(-c3cc(NC(=O)c4ccnc(C(F)(F)F)c4F)ccc3C)cnc21 [Example 253, N-(3-((4aS, 10bR)-6-ethyl-5-oxo-2,4,4a,5,6,10b-hexahydro-1H-pyrano[3,4-c][1,8]naphthyridin 9-yl)-4-methylphenyl)-3-fluoro-2-(trifluoromethyl) isonicotinamide] | 3.2
24 | CCN1C(=O)[C@@H]2COCC[C@H]2c2cc(-c3cc(NC(=O)c4ccnc(C(C)(C)F)c4)ccc3C)cnc21 [Example 254, N-(3-((4aS, 10bR)-6-ethyl-5-oxo-2,4,4a,5,6,10b-hexahydro-1H-pyrano[3,4-c][1,8]naphthyridin-9-yl)-4-methylphenyl)-2-(2-fluoropropan-2-yl)isonicotinamide] | 0.2
25 | CCN1C(=O)[C@H]2COCC[C@@H]2c2cc(-c3cc(NC(=O)c4cccc(C(F)(F)F)c4F)cnc3C)cnc21 [Example 255, N-(5-((4aR, 10bS)-6-ethyl-5-oxo-2,4,4a,5,6,10b-hexahydro-1H-pyrano[3,4-c][1,8]naphthyridin-9-yl)-6-methylpyridin-3-yl)-2-fluoro-3-(trifluoromethyl) benzamide] | 0.8
26 | CCN1C(=O)[C@@H]2COCC[C@H]2c2cc(-c3cc(NC(=O)c4cccc(C(F)(F)F)c4F)cnc3C)cnc21 [Example 256, N-(5-((4aS, 10bR)-6-ethyl-5-oxo-2,4,4a,5,6,10b-hexahydro-1H-pyrano[3,4-c][1,8]naphthyridin-9-yl)-6-methylpyridin-3-yl)-2-fluoro-3-(trifluoromethyl) benzamide] | 0.1
27 | Cc1ncc(NC(=O)c2cccc(C(F)(F)F)c2)cc1-c1cnc2c(c1)[C@@H]1CCOC[C@H]1C(=O)N2CCO [Example 259, N-(5-((4aS, 10bR)-6-(2-hydroxyethyl)-5-oxo-2,4,4a,5,6,10b-hexahydro-1H-pyrano[3,4-c][1,8]naphthyridin-9-yl)-6-methylpyridin-3-yl)-3-(trifluoromethyl) benzamide] | 0.6
